Values quoted from earlier work in US20250171403A1 (Synthon B.V., priority 2022, published 2025).

Details: qualitative, background statement

solubility (prior art, general statement): poorly soluble
Structure (SMILES): COc1cc2nccc(Oc3ccc(NC(=O)C4(C(=O)Nc5ccc(F)cc5)CC4)cc3)c2cc1OC [Cabozantinib, N-[4-(6,7-Dimethoxyquinolin-4-yloxy)phenyl]-N′-(4-fluorophenyl)cyclopropane-1,1-dicarboxamide]
